In patent publication US10330673B2, “Fluorescent chemical sensor for biological amines” (The Curators of the University of Missouri, priority 2013, dated 2019):

Assays:
[1] = Fluorescence titration of sensor with norepinephrine; format: binding; details: for Ka: pH 5.0, 37° C.
Method: (§1) Fluorescence spectra were recorded on a Shimadzu RF-5301 PC spectrofluorometer at 37° C. A 1 mg/mL stock solution of I-2 in DMSO was prepared. A stock solution of I-2 in buffer (1×10^−5 M, 25 mM HEPES, 50 mM Na2S2O3, pH=5.0) was prepared. Norepinephrine, dopamine, epinephrine, and glutamate stock solutions were prepared by separately dissolving the analytes at the concentration to be used in the titration with the buffered stock solution of I-2 (thus avoiding dilution of I-2 during the experiment). I-2 was titrated with aliquots of analyte solution. The sensor was excited at 488 nm with slit widths of 5 nm.
(§2) Fluorescence spectra were recorded on a Shimadzu RF-5301 PC spectrofluorometer at 37° C. A separate 1 mg/mL stock solution of each coumarin-3-aldehyde derivative in DMSO was prepared. An aqueous stock solution of each derivative (10 μM) in buffer (25 mM HEPES, 50 mM Na2S2O3, pH=5.0) was prepared. Norepinephrine, dopamine, glutamate, and epinephrine stock solutions were prepared by separately dissolving the solid analytes at the concentration to be used in the titration with the buffered stock solutions described above and thus, avoiding dilution of the sensor during the experiment. The benzene-based NS521 derivatives were excited at 488 nm. The thiophene-based derivatives were excited at 515 nm.

[2] = Fluorescence titration of sensor with dopamine; format: binding; details: for Ka: pH 5.0, 37° C.
Method: as §1, §2

[3] = Fluorescence quantum yield of sensor bound to glutamate; format: physicochemical
Method: Steady-state fluorescence spectroscopic studies were performed using a Horiba Scientific Fluorolog-3 Model FL3C-111 spectrofluorometer and data was collected and analyzed using HJY FluorEssence™ 3.5.1.20 software package. UV-visible spectra were obtained on a Varian Cary 1E UV-visible spectrophotometer. A stock solution of each benzene- or thiophene-based coumarin-3-aldehyde derivative (1 μM) in buffer (25 mM HEPES, 50 mM Na2S2O3, pH=5.0) was prepared. Each solution contained 1% (v/v) DMSO as a cosolvent except as noted. The slit width was 2 nm for both excitation and emission. The bound benzene- and thiophene-coumarin-3-aldehyde derivatives contained 500 mM glutamate (pH=5.0).
To determine the relative quantum yield of fluorescence (Φfl) for the benzene-based derivatives, a 1.0 μM solution of fluorescein (absolute Φfl=0.85) in 0.1 N NaOH (pH 13) was used as a fluorescence standard. The unbound derivatives were excited at 473 nm and the bound derivatives were excited at 488 nm. To determine the relative quantum yield of fluorescence (Φfl) for the thiophene-based derivatives, a 1.0 μM solution of rhodamine B (absolute Φfl=0.31) in water (pH 7) was used as a fluorescence standard. The unbound derivatives were excited at 473 nm and the bound derivatives were excited at 515 nm. Quantum yields were obtained in triplicate and calculated as per the following equation: […]

[4] = system: EP-enriched chromaffin cells; test: Fixed-cell staining with I-2 and anti-PNMT antibody, EP-enriched cells; format: cell-based, bovine; details: 585 nm = anti-PNMT/Cy3, 525 nm = I-2 (1 μM), ImageJ
Excerpt: To further validate the selectivity of the inventive sensor, the inventive detection method is validated with an established procedure in which phenylethanolamine N-methyltransferase (PNMT) is stained with an antibody and visualized with a Cy3-conjugated secondary antibody. It has been shown that epinephrine-enriched cell populations gave the highest level of PNMT staining, while norepinephrine-enriched populations gave lower staining (ca. 20% of that with epinephrine-enriched cells). For this experiment, three populations of chromaffin cells (norepinephrine-enriched, epin ephrine-enriched, and mixed) were stained with Compound I-2 and fixed in 4% paraformaldehyde. The fixed cells were stained with the anti-PNMT and secondary antibodies.
Chromaffin cells were isolated from bovine adrenal glands as previously described. […]
NE-enriched cells, EP-enriched cells and mixed cells stained with I-2 (1 μM) and plated on 0.0025% Poly (1-lysine) coated cover slips, after three washed with pre-warmed phosphate-buffered saline (pH=7.4, PBS), were fixed in 4% paraformaldehyde (Sigma, St. Louis, Mo., USA) in PBS for 60 min at room temperature (RT), followed by 6 min in methanol chilled to −20° C. […] After three washed in PBS, bound antibody was detected using Cy™3-conjugated AffiniPure Donkey Anti-Rabbit (1:150 dilution, Jackson ImmunoResearch Laboratories, Inc, Nest Grove, Pa., 19390). […]

[5] = Fluorescence response mode toward catecholamines; format: binding; details: catecholamines norepinephrine and dopamine
[6] = Table 2, analyte norepinephrine, benzene-based compounds I, excited at 488 nm
[7] = Table 2, analyte dopamine, benzene-based compounds I, excited at 488 nm

`CCN(CC)c1ccc2c(-c3ccc(OC)cc3)c(C=O)c(=O)oc2c1` [Compound I-2, 7-diethylamino-3-formyl-4-(4′-methoxyphenyl)coumarin] showed a F.E. [1, 6] of 5.40, a Ka [1, 6] of 77.76 M⁻¹ and a Ka ([1]; amine guest norepinephrine, fluorescence spectroscopy, λex = 488 nm, λem = 521 nm) of 75 M⁻¹. For the same molecule, the “Isat/Io (λex = 488 nm)” value ([1]; amine guest norepinephrine, intensity at saturation from fit to binding isotherm) was 5.3, the “binding constants of catecholamines (norepinephrine, dopamine) relative to other alkyl amines such as glycine” value ([1]; higher binding constants) was 10 fold and the F.E. [2, 7] was 2.98. For the same molecule, the Ka [2, 7] was 112.10 M⁻¹, the Ka ([2]; amine guest dopamine, fluorescence spectroscopy, λex = 488 nm, λem = 521 nm) was 112 M⁻¹ and the “Isat/Io (λex = 488 nm)” value ([2]; amine guest dopamine, intensity at saturation from fit to binding isotherm) was 3.0. The “Quantum Yield (Φ)” value ([3]; bound to glutamate) was 0.0095, the “difference in quantum yields, bound to glutamate vs bound to norepinephrine” value ([3]; in words) was “three-fold” and the “average fluorescence intensity at 585 nm vs. 525, epinephrine-enriched relative to norepinephrine-enriched cells” value [4] was 6 times. The “mode of fluorescence response” value [5] was “turn-on fluorescent sensor”.
